Laboratory results: patent US6747033B2, “Fungicidal triazolopyrimid-7-ylideneamines” (BASF Aktiengesellschaft, priority 2000, dated 2004)
Read-outs that look alike come from different tables or passages of the source.

How the values were obtained:
Plasmopara viticola = assay: In vivo fungicidal activity, Grape downy mildew (GDM); note: ranges in brackets are in %
[1] = tested on: Pyricularia grisea f. sp. oryzae; type: in vivo; settings: Rice Blast
Pythium ultimum = assay: In vitro fungicidal activity, Fruit rot (PYTHUL); type: cell-based; set-up: key: 0: None; 3: slight; 5: moderate; 7: severe; 9: complete; settings: 3-7 days of incubation
Protocol: (§1) Test compounds are dissolved in acetone to give concentrations of 25, 10 and 1 ppm and are added to individual cell Walls (24-cell-well plates, Corning), which were previously filled with a suspension of ground plates, Corning), which were previously filled with a suspension of ground fungal mycelium in a chemically defined growth medium. After 3-7 days of incubation, inhibition of […] growth is recorded using the following scale: The data obtained are shown in Table II. [table]

Rhizoctonia solani = assay: In vitro fungicidal activity, Rice sheath blight (RHIZSO); type: cell-based; set-up: key: 0: None; 3: slight; 5: moderate; 7: severe; 9: complete; settings: 3-7 days of incubation
Protocol: as §1

Cercospora beticola = assay: In vivo fungicidal activity, Sugar Beet Cercospora (SBC); note: ranges in brackets are in %
Venturia inaequalis = assay: In vivo fungicidal activity, Apple Scab (AS); note: ranges in brackets are in %
Blumeria graminis = assay: In vivo fungicidal activity, Wheat powdery mildew (WPM); note: ranges in brackets are in %
Botrytis cinera = assay: In vivo fungicidal activity, Pepper Botrytis (PB); note: ranges in brackets are in %
Alternara solani = assay: In vivo fungicidal activity, Tomato early blight (TEB); note: ranges in brackets are in %
[2] = tested on: Pseudocercosporella herpotrichoides; assay: In vitro fungicidal activity, Cereal eye spot (PSDCHE); type: cell-based; set-up: key: 0: None; 3: slight; 5: moderate; 7: severe; 9: complete; settings: 3-7 days of incubation
Protocol: as §1

Row | Compound | GDM disease control rating (Plasmopara viticola; 12.5 ppm spray) | GDM disease control rating (Plasmopara viticola; 50 ppm spray) | GDM disease control rating (Plasmopara viticola; 200 ppm spray) | RB disease control rating ([1]; 12.5 ppm spray) | RB disease control rating ([1]; 50 ppm spray) | RB disease control rating ([1]; 200 ppm spray) | SBC disease control rating (Cercospora beticola; 12.5 ppm spray) | SBC disease control rating (Cercospora beticola; 50 ppm spray) | AS disease control rating (Venturia inaequalis; 12.5 ppm spray) | AS disease control rating (Venturia inaequalis; 50 ppm spray) | AS disease control rating (Venturia inaequalis; 200 ppm spray) | WPM disease control rating (Blumeria graminis; 12.5 ppm spray) | WPM disease control rating (Blumeria graminis; 50 ppm spray) | WPM disease control rating (Blumeria graminis; 200 ppm spray) | PB disease control rating (Botrytis cinera; 12.5 ppm spray) | PB disease control rating (Botrytis cinera; 50 ppm spray) | PB disease control rating (Botrytis cinera; 200 ppm spray) | TEB disease control rating (Alternara solani; 12.5 ppm spray) | TEB disease control rating (Alternara solani; 50 ppm spray) | TEB disease control rating (Alternara solani; 200 ppm spray) | further results
1 | Cn1c(Cl)c(-c2c(F)cc(F)cc2F)c(=NCC(F)(F)F)n2ncnc12 [Example 1A, N-(5-chloro-4-methyl-6-(2,4,6-trifluorophenyl)-4H[1,2,4]triazolo[1,5-α]pyrimidin-7-ylidene]-N-(2,2,2-trifluoroethyl)-amine] | 5 (60-74) | 6 (75-89) | 4 (45-59) | 0 (0) | 0 (0) | 6 (75-89) | 0 (0) | 6 (75-89) | 0 (0) | 6 (75-89) | 9 (100) | 0 (0) | 7 (90-95) | 8 (96-99) | 0 (0) | 5 (60-74) | 0 (0) | 0 (0) | 0 (0) | 3 (30-44) | PYTHU inhibition of mycelial growth rating (Pythium ultimum; 1 ppm): 0; PYTHU inhibition of mycelial growth rating (Pythium ultimum; 10 ppm): 0; PYTHU inhibition of mycelial growth rating (Pythium ultimum; 25 ppm): 0; RHIZSO inhibition of mycelial growth rating (Rhizoctonia solani; 1 ppm): 5; RHIZSO inhibition of mycelial growth rating (Rhizoctonia solani; 10 ppm): 7; RHIZSO inhibition of mycelial growth rating (Rhizoctonia solani; 25 ppm): 7; SBC disease control rating (Cercospora beticola; 200 ppm spray): 8 (96-99); PSDCH inhibition of mycelial growth rating ([2]; 1 ppm): 0; PSDCH inhibition of mycelial growth rating ([2]; 10 ppm): 0; PSDCH inhibition of mycelial growth rating ([2]; 25 ppm): 0
2 | CCCn1c(Cl)c(-c2c(F)cc(F)cc2F)c(=NC(C)C(F)(F)F)n2ncnc12 (stereo not drawn) [Example 2] | 4 (45-59) | 2 (15-29) | 1 (1-14) | 0 (0) | 0 (0) | 0 (0) | 0 (0) | 0 (0) | 0 (0) | 0 (0) | 5 (60-74) | 0 (0) | 0 (0) | 0 (0) | 1 (1-14) | 1 (1-14) | 1 (1-14) | 0 (0) | 0 (0) | 0 (0) | SBC disease control rating (Cercospora beticola; 200 ppm spray): 3 (30-44)
3 | CCn1c(Cl)c(-c2c(F)cc(F)cc2F)c(=NC(C)C(F)(F)F)n2ncnc12 (stereo not drawn) [Example 3] | 0 (0) | 4 (45-59) | 4 (45-59) | 0 (0) | 0 (0) | 5 (60-74) | 0 (0) | 0 (0) | 0 (0) | 0 (0) | 6 (75-89) | 0 (0) | 0 (0) | 3 (30-44) | 2 (15-29) | 0 (0) | 0 (0) | 3 (30-44) | 3 (30-44) | 0 (0) | PYTHU inhibition of mycelial growth rating (Pythium ultimum; 1 ppm): 0; PYTHU inhibition of mycelial growth rating (Pythium ultimum; 10 ppm): 0; PYTHU inhibition of mycelial growth rating (Pythium ultimum; 25 ppm): 0; RHIZSO inhibition of mycelial growth rating (Rhizoctonia solani; 1 ppm): 3; RHIZSO inhibition of mycelial growth rating (Rhizoctonia solani; 10 ppm): 5; RHIZSO inhibition of mycelial growth rating (Rhizoctonia solani; 25 ppm): 5; SBC disease control rating (Cercospora beticola; 200 ppm spray): 0 (0); PSDCH inhibition of mycelial growth rating ([2]; 1 ppm): 0; PSDCH inhibition of mycelial growth rating ([2]; 10 ppm): 1; PSDCH inhibition of mycelial growth rating ([2]; 25 ppm): 1
4 | CCCn1c(Cl)c(-c2c(F)cc(OC)cc2F)c(=NC(C)C(F)(F)F)n2ncnc12 (stereo not drawn) [Example 4] | 0 (0) | 0 (0) |  | 0 (0) | 0 (0) |  | 0 (0) | 0 (0) | 0 (0) | 0 (0) |  | 0 (0) | 0 (0) |  | 0 (0) | 0 (0) |  | 0 (0) | 0 (0) |  | GDM disease control rating (Plasmopara viticola; 3.1 ppm spray): 4 (45-59); RB disease control rating ([1]; 3.1 ppm spray): 0 (0); SBC disease control rating (Cercospora beticola; 3.1 ppm spray): 0 (0); AS disease control rating (Venturia inaequalis; 3.1 ppm spray): 0 (0); WPM disease control rating (Blumeria graminis; 3.1 ppm spray): 0 (0); PB disease control rating (Botrytis cinera; 3.1 ppm spray): 0 (0); TEB disease control rating (Alternara solani; 3.1 ppm spray): 3 (30-44)
5 | CCCn1cnn2c(=NC(C)C(F)(F)F)c(-c3c(F)cc(OC)cc3F)c(Cl)nc12 (stereo not drawn) [Example 12] | 0 (0) | 0 (0) | 0 (0) | 0 (0) | 0 (0) | 0 (0) | 0 (0) | 0 (0) | 0 (0) | 0 (0) | 0 (0) | 0 (0) | 0 (0) | 0 (0) | 0 (0) | 0 (0) | 0 (0) | 0 (0) | 0 (0) | 0 (0) | SBC disease control rating (Cercospora beticola; 200 ppm spray): 0 (0)
6 | Cn1c(Cl)c(-c2c(F)cc(F)cc2F)c(=NCC(F)(F)F)n2ncnc12 [Example 17] | 0 (0) | 0 (0) | 5 (60-74) | 0 (0) | 3 (30-44) | 4 (45-59) |  |  | 0 (0) | 2 (15-29) | 6 (75-89) | 0 (0) | 2 (15-29) | 6 (75-89) | 0 (0) | 0 (0) | 0 (0) | 0 (0) | 0 (0) | 0 (0) | PYTHU inhibition of mycelial growth rating (Pythium ultimum; 1 ppm): 0; PYTHU inhibition of mycelial growth rating (Pythium ultimum; 10 ppm): 5; PYTHU inhibition of mycelial growth rating (Pythium ultimum; 25 ppm): 7; RHIZSO inhibition of mycelial growth rating (Rhizoctonia solani; 1 ppm): 7; RHIZSO inhibition of mycelial growth rating (Rhizoctonia solani; 10 ppm): 7; RHIZSO inhibition of mycelial growth rating (Rhizoctonia solani; 25 ppm): 7; PSDCH inhibition of mycelial growth rating ([2]; 1 ppm): 0; PSDCH inhibition of mycelial growth rating ([2]; 10 ppm): 1; PSDCH inhibition of mycelial growth rating ([2]; 25 ppm): 3
